Measurements published in ChEMBL document CHEMBL5614367, “Hydroxamic acid hybrids: Histone deacetylase inhibitors with anticancer therapeutic potency” (Eur J Med Chem, 2023).

Columns and labels:
Histone deacetylase 2 = Histone deacetylase 2 (Homo sapiens, UniProt Q92769); assay: Inhibition of HDAC2 (unknown origin)
[1] = Cytotoxicity against human NFF cells; format: toxicity, cell-based
MDA-MB-231 [2] = assay: Antiproliferative activity against human MDA-MB-231 cells
HT-29 = assay: Antiproliferative activity against human HT-29 cells; format: functional, cell-based
A549 = assay: Antiproliferative activity against human A549 cells
MM96L = assay: Antiproliferative activity against human MM96L cells; format: functional, cell-based
HeLa [3] = assay: Antiproliferative activity against human HeLa cells; format: functional, cell-based
HCT-116 [4] = assay: Antiproliferative activity against human HCT-116 cells measured after 24 hrs by MTT assay; format: functional, cell-based; settings: HCT-116, 24 h
Ehrlich [5] = assay: Antitumor activity against mouse EAC cells implanted in mouse assessed as increase in life span at 0.5 mg/kg, ip relative to control; format: functional
Histone deacetylase 1 [6] = molecular target: T1, Histone deacetylase 1 (Homo sapiens, UniProt Q13547); assay: Inhibition of human HDAC1 incubated for 30 mins by ELISA; settings: pooled result: one value given for 5 cell lines, strains, targets or settings
T1 sequence (Q13547 whole entry): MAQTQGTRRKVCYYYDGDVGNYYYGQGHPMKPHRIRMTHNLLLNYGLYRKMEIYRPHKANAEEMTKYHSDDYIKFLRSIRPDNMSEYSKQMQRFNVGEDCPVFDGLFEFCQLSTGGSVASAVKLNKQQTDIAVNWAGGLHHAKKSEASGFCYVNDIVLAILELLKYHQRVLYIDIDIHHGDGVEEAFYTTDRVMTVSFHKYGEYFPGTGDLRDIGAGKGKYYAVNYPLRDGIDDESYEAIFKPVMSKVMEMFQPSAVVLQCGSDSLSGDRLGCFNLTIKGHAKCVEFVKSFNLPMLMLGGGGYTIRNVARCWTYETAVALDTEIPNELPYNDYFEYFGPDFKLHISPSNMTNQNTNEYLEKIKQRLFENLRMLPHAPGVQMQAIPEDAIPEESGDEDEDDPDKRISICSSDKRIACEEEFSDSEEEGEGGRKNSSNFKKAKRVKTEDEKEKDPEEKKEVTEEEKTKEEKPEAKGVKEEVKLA

MCF7 [7] = assay: Antiproliferative activity against human MCF7 cells measured after 24 hrs by MTT assay; format: functional, cell-based; settings: MCF7, 24 h
Ehrlich [8] = assay: Antitumor activity against mouse EAC cells implanted in mouse assessed as reduction in tumor volume at 0.5 mg/kg, ip relative to control; format: functional; set-up: scale not given: the % may be the effect or the level left
HeLa [9] = assay: Antiproliferative activity against human HeLa cells measured after 24 hrs by MTT assay; format: functional, cell-based
HepG2 = assay: Antiproliferative activity against human HepG2 cells measured after 24 hrs by MTT assay; format: functional, cell-based; settings: HepG2, 24 h
Histone deacetylase 1 [10] = molecular target: T1, Histone deacetylase 1; assay: Inhibition of HDAC1 (unknown origin) preincubated for 10 mins followed by substrate addition and measured after 30 mins by fluorescence based microplate reader analysis
WSUDLCL2 = assay: Antiproliferative activity against human WSUDLCL2 cells measured after 72 hrs by CCK-8 assay; format: functional, cell-based; settings: WSUDLCL2, 72 h
K562 = assay: Antiproliferative activity against human K562 cells measured after 72 hrs by CCK-8 assay; format: functional, cell-based; settings: K562, 72 h
MV4-11 = assay: Antiproliferative activity against human MV4-11 cells measured after 72 hrs by CCK-8 assay; format: functional, cell-based; settings: MV4-11, 72 h
HEL [11] = assay: Antiproliferative activity against human HEL cells measured after 72 hrs by CCK-8 assay; format: functional, cell-based
SU-DHL-2 = assay: Antiproliferative activity against human SU-DHL-2 cells measured after 72 hrs by CCK-8 assay; format: functional, cell-based; settings: SU-DHL-2, 72 h
PC-3 [12] = assay: Antiproliferative activity against human PC-3 cells; format: functional, cell-based
SW-620 = assay: Antiproliferative activity against human SW620 cells; format: functional, cell-based
[13] = molecular target: T2, Protein deacetylase HDAC6 (Homo sapiens, UniProt Q9UBN7); assay: Inhibition of HDAC6 (unknown origin)
T2 sequence (Q9UBN7 whole entry): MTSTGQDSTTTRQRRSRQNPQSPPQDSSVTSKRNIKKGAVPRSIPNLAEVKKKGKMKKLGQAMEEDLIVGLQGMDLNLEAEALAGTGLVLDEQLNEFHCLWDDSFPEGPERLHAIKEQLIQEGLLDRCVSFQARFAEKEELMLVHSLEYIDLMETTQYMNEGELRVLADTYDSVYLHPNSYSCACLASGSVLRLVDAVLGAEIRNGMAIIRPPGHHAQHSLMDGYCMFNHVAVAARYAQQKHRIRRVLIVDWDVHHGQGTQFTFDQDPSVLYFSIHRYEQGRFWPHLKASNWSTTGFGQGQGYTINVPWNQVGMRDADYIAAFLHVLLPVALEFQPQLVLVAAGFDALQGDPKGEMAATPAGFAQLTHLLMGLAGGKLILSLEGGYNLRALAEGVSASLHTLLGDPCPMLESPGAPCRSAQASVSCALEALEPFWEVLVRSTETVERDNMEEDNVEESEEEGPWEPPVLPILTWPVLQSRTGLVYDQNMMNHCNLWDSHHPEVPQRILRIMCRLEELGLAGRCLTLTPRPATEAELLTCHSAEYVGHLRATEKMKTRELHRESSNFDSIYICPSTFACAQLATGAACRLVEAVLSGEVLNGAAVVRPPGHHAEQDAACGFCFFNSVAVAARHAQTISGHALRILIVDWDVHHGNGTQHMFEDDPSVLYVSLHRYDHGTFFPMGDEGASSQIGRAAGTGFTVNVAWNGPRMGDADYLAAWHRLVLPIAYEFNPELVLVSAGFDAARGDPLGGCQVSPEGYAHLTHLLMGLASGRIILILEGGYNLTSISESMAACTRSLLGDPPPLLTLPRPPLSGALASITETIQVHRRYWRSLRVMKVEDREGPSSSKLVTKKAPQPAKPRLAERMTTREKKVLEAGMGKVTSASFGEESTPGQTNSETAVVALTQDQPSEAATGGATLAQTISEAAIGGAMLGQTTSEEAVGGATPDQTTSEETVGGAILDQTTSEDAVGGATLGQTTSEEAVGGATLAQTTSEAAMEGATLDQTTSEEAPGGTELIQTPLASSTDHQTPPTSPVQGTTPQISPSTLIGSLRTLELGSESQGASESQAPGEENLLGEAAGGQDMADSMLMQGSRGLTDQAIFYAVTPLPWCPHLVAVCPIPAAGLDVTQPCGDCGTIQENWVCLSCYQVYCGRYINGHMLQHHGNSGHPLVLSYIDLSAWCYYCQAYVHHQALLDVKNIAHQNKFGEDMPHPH

HEL [14] = assay: Antiproliferative activity against human HEL cells assessed as inhibition of cell growth incubated for 72 hrs by MTT assay; format: functional, cell-based
MCF7 [15] = assay: Antiproliferative activity against human MCF7 cells assessed as inhibition of cell growth incubated for 72 hrs by MTT assay; format: functional, cell-based; settings: MCF7, 72 h
SK-N-BE(2) = assay: Antiproliferative activity against human SK-N-BE(2) cells assessed as inhibition of cell growth incubated for 72 hrs by MTT assay; format: functional, cell-based; settings: SKNBE2, 72 h
MOLT-4 = assay: Antiproliferative activity against human MOLT-4 cells assessed as inhibition of cell growth incubated for 72 hrs by MTT assay; format: functional, cell-based; settings: MOLT-4, 72 h
MDA-MB-231 [16] = assay: Antiproliferative activity against human MDA-MB-231 cells assessed as inhibition of cell growth incubated for 72 hrs by MTT assay; format: functional, cell-based; settings: MDA-MB-231, 72 h
KG-1 = assay: Antiproliferative activity against human KG-1 cells assessed as inhibition of cell growth incubated for 72 hrs by MTT assay; format: functional, cell-based; settings: KG-1, 72 h
PC-3 [17] = assay: Antiproliferative activity against human PC-3 cells assessed as inhibition of cell growth incubated for 72 hrs by MTT assay; format: functional, cell-based; settings: PC-3, 72 h
Jurkat = assay: Antiproliferative activity against human Jurkat cells; format: functional, cell-based
HCT-116 [18] = assay: cells; settings: Homo sapiens
MCF7 [19] = assay: cells; settings: Homo sapiens
[20] = Cytotoxicity against HEK293 cells; format: toxicity, cell-based; settings: human
HL-60 = assay: Antiproliferative activity against human HL-60 cells; format: functional, cell-based
HL60/ADR = assay: Antiproliferative activity against human HL-60/ADR cells
[21] = Antiproliferative activity against human HL-60/Vinc cells; settings: HL60/vinc

Chain of Histone deacetylase 2 (Q92769 whole entry): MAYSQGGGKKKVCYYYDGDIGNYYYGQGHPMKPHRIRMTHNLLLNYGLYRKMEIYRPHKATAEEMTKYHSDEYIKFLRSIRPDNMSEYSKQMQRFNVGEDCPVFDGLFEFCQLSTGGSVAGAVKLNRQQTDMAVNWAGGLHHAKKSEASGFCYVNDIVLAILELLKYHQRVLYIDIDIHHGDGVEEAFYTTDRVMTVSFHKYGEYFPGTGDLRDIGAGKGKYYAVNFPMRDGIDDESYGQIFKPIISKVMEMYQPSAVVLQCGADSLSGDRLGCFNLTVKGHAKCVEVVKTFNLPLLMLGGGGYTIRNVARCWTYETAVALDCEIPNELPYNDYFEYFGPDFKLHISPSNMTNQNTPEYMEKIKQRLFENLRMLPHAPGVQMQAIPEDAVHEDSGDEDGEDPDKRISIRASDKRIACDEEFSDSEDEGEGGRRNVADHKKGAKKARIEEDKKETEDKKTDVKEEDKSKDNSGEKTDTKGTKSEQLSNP

Question: For O=C(NO)c1ccc(NC(=O)C2(c3ccc(-c4cn[nH]c4)cc3)CCCCC2)cc1, which IC50 (Histone deacetylase 2) is on record?
Answer: The IC50 was 2 nM.

Question: What about the IC50 [1] of the same compound?
Answer: The IC50 was 50 nM.

Question: And the IC50 (MDA-MB-231 [2])?
Answer: Its IC50 is 50 nM.

Question: And the IC50 (HT-29)?
Answer: The IC50 was 50 nM.

Question: And the IC50 (A549)?
Answer: Its IC50 is 50 nM.

Question: And the IC50 (MM96L)?
Answer: The IC50 was 50 nM.

Question: And the IC50 (HeLa [3])?
Answer: The IC50 was 50 nM.

Question: Which IC50 (HCT-116 [4]) does the source give for CCCC(CCC)C(=O)N[C@@H](Cc1ccccc1)C(=O)NO here?
Answer: Its IC50 is 9620 nM.

Question: What about the ILS at 0.5 mg/kg (Ehrlich [5]) of the same compound?
Answer: Its ILS at 0.5 mg/kg is 131%.

Question: What about the IC50 (Histone deacetylase 1 [6]) of the same compound?
Answer: The IC50 was 2.86 nM.

Question: What about the IC50 (MCF7 [7]) of the same compound?
Answer: Its IC50 is 9620 nM.

Question: And the Activity (Ehrlich [8])?
Answer: The Activity was ~36%.

Question: And the IC50 (HeLa [9])?
Answer: The IC50 was 9620 nM.

Question: And the IC50 (HepG2)?
Answer: The IC50 was 9620 nM.

Question: For C=C[C@]1(C)CC[C@@H](C(=C)Cn2cccn2)C[C@H]1C(=C)CN1CCN(C(=O)CCCCCCC(=O)NO)CC1, which IC50 (Histone deacetylase 1 [10]) is on record?
Answer: The IC50 was 8 nM.

Question: What about the IC50 (WSUDLCL2) of the same compound?
Answer: Its IC50 is 1000 nM.

Question: And the IC50 (K562)?
Answer: Its IC50 is 1000 nM.

Question: And the IC50 (MV4-11)?
Answer: The IC50 was 1000 nM.

Question: What about the IC50 (HEL [11]) of the same compound?
Answer: The IC50 was 1000 nM.

Question: And the IC50 (SU-DHL-2)?
Answer: The IC50 was 1000 nM.

Question: Which IC50 (PC-3 [12]) does the source give for O=C(/C=C/c1ccc2nn(Cc3ccc(Cl)cc3)cc2c1)NO here?
Answer: Its IC50 is 196 nM.

Question: And the IC50 (SW-620)?
Answer: Its IC50 is 196 nM.

Question: What about the IC50 (MDA-MB-231 [2]) of the same compound?
Answer: The IC50 was 196 nM.

Question: And the IC50 [13]?
Answer: The IC50 was 231 nM.

Question: Which IC50 (HEL [14]) does the source give for Nc1nc2ccc(OC(F)(F)F)cc2s1 [RILUZOLE] here?
Answer: The IC50 was > 10000 nM.

Question: And the IC50 (MCF7 [15])?
Answer: Its IC50 is > 10000 nM.

Question: What about the IC50 (SK-N-BE(2)) of the same compound?
Answer: The IC50 was > 10000 nM.

Question: And the IC50 (MOLT-4)?
Answer: The IC50 was > 10000 nM.

Question: What about the IC50 (MDA-MB-231 [16]) of the same compound?
Answer: The IC50 was > 10000 nM.

Question: What about the IC50 (KG-1) of the same compound?
Answer: The IC50 was > 10000 nM.

Question: What about the IC50 (PC-3 [17]) of the same compound?
Answer: Its IC50 is > 10000 nM.

Question: Which IC50 (Jurkat) does the source give for CN(C)c1nc2c(Br)c(Br)c(Br)c(Br)c2n1CCCCCCCC(=O)NO here?
Answer: The IC50 was 2320 nM.

Question: And the IC50 (HCT-116 [18])?
Answer: The IC50 was 2320 nM.

Question: And the IC50 (MCF7 [19])?
Answer: The IC50 was 2320 nM.

Question: And the IC50 [20]?
Answer: Its IC50 is 2320 nM.

Question: And the IC50 (HL-60)?
Answer: Its IC50 is 2320 nM.

Question: What about the IC50 (HL60/ADR) of the same compound?
Answer: Its IC50 is 2320 nM.

Question: What about the IC50 [21] of the same compound?
Answer: The IC50 was 2320 nM.
